One substance from patent US20050070519A1, “Cyclisation process for the preparation of c-2 beta-lactam compounds” (priority 2001, published 2005) can be followed below.

This test addresses T1, BLS (β-lactam synthetase), polyhistidine tagged (Streptomyces clavuligerus, UniProt P0DJQ7).
T1 construct: made in house; host or cells: E. coli BL21(DE3), co-expressed with chaperonin GroELS
T1 sequence (P0DJQ7 1-513): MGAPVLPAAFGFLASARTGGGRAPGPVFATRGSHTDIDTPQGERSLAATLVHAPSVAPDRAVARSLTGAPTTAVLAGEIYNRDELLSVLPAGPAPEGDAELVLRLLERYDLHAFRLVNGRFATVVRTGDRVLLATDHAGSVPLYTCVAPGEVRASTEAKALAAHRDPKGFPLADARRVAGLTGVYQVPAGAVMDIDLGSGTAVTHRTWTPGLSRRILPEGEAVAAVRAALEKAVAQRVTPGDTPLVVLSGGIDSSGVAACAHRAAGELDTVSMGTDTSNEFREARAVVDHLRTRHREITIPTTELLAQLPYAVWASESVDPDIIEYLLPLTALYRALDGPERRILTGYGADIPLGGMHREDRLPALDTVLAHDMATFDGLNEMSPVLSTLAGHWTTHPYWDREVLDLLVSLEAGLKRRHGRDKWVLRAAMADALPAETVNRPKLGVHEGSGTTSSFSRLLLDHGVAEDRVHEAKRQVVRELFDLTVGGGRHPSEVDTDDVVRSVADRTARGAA
In words: fluorescence detection pre-column derivatised HPLC substrate assay with polyhistidine tagged BLS. The test is classed as biochemical. An excerpt:
The bls gene has previously been expressed at relatively low levels using a pET24a(+) construct and purified by an involved two column protocol giving low overall yields (McNaughton, H. J.; Thirkettle, J. E.; Zhang, Z. H.; Schofield, C. J.; Jensen, S. E.; Barton, B.; Greaves, P. J. Chem. Soc., Chem. Commun. 1998, 2325-2326; Bachmann, B. O.; Townsend, C. A. Biochemistry 2000, 39, 11187-11193). To facilitate purification a polyhistidine tagged form of BLS (β-lactam synthetase) was produced by cloning bis into the pET28a(+) vector (from Novagen). […]
The bls gene in the vector pET28a(+) and a plasmid bearing the chaperonin GroELS^13 were simultaneously transformed into E. coli BL21(DE3) for co-expression. […] When the absorbance at 600 nm reached ˜1.0, IPTG was added to a final concentration of 1.0 mM and the cells harvested 16 hours later by centrifugation. […]
The 2-methylated substrate analogue (6) was initially assayed as a substrate for BLS using a fluorescence detection pre-column derivatised HPLC assay based on the work of Kai et al (Kai, M.; Miyazaki, T.; Yamaguchi, M.; Ohkura, Y. J. Chromatogr. 1983, 425-436). […]
Reactions were incubated at 37° C. for 15 minutes and then derivatised. […] Fluorescence was measured at 425 nm against 325 nm excitation. […]

With 2-Methyl CEA, the “relative substrate efficiency of the two 2-methyl epimers” value (larger scale incubation, product isolated by HPLC, 1H NMR (500 MHz) analysis) is reported as “both epimers are approximately equally efficient substrates”. The “conversion of 2-methyl CEA (6) to 2-methyl DGPC (9)” value (standard assay conditions: 2 mM substrate, 5 mM ATP, 10 mM MgCl2, pH 9, ca. 74 μg enzyme, 37° C., 15 minutes) is “ca. 50%”.
